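Following 48 hours of exposure in 96-well plates, responses at five concentrations were used to interpolate endpoints linearly. GI50 is the concentration that inhibits growth by half. TGI is the concentration that stops growth completely.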
Experiments:
Test in all cases: inhibition of tumour cell growth, NCI panel, 48 h
[1] = tested on: T-47D breast
[2] = tested on: A498 renal
[3] = tested on: RXF 393 renal
[4] = tested on: SF-295 CNS
[5] = tested on: K-562 leukemia
[6] = tested on: SF-539 CNS
[7] = tested on: SK-MEL-28 melanoma
[8] = tested on: CAKI-1 renal
[9] = tested on: NCI-H522 lung
[10] = tested on: HCC-2998 colon

SMILES	TGI [1] [µM]	TGI [2] [µM]	TGI [3] [µM]	TGI [4] [µM]	TGI [5] [µM]	TGI [6] [µM]	TGI [7] [µM]	TGI [8] [µM]	TGI [9] [µM]	TGI [10] [µM]	GI50 [1] [µM]	GI50 [2] [µM]	GI50 [3] [µM]	GI50 [4] [µM]	GI50 [5] [µM]	GI50 [6] [µM]	GI50 [7] [µM]	GI50 [8] [µM]	GI50 [9] [µM]	GI50 [10] [µM]
O=c1cc(CNC2CC3CCC2C3)[nH]c(=O)[nH]1 (stereo not given)	> 100	> 100	> 100	> 100	> 100	> 100	> 100	> 100	> 100	> 100										
CC(C)CCC[C@@H](C)[C@H]1CC[C@H]2C3=C[C@H](OS(=O)(=O)O)[C@@]4(O)C[C@@H](O)CC[C@]4(C)[C@@]3(O)CC[C@]12C	> 100	> 100	> 100	> 100	> 100	> 100	> 100	> 100	> 100	> 100										
O=S(=O)(O)c1ccc2cc(N=Nc3c(O)ccc4ccccc34)ccc2c1	> 100	> 100	> 100	> 100	> 100	> 100		> 100	> 100	> 100										
C[C@H]1C[C@H]2[C@@H]3CCC4=CC(=O)C=C[C@]4(C)C3=CC[C@]2(C)[C@@]1(O)C(=O)CO	> 100	> 100	> 100	> 100	> 100		> 100	> 100	> 100	> 100										
Nc1[nH]c(=O)[nH]c(=O)c1Cc1cccc(Cl)c1	> 100	> 100	> 100	> 100	> 100	> 100	> 100	> 100	> 100	> 100										
CC(=O)O[C@@H]1[C@H]2[C@@H](OC(=O)c3ccccc3)[C@@H](C)C[C@]2(O)[C@H](OC(C)=O)[C@@]2(C)[C@@H]3C[C@@](C)(OC(C)=O)C[C@@H](OC(C)=O)[C@@]3(OC(C)=O)C[C@@]12C	> 10	> 10	> 10	> 10	> 10	> 10		> 10	> 10	> 10										
C=C1C2CCC3(CCC4C5(C)CCCC4(C=[N+](CCO)C5)C3C2)C1O (stereo not given)	> 100	> 100	> 100	> 100		> 100	> 100	> 100	> 100	> 100										
CC(=O)NCCCCN(CCCNC(C)=O)C(=O)OCc1ccccc1	> 100	> 100	> 100	> 100	> 100	> 100	> 100	> 100	> 100	> 100										
COC1=C2CC(C)CC(OC)C(OC(=O)CCCN)C(C)/C=C(\C)C(OC(N)=O)C(OC)/C=C\C=C(/C)C(=O)NC(=CC1=O)C2=O (stereo not given)	4.65	30.6	25.6	31.1	19.4	16.9	23.7	23.3	1.96	19.4										
c1ccc(COC2C3COC(O3)C(OCc3ccccc3)C2OCc2ccccc2)cc1 (stereo not given)	> 100	> 100	> 100	> 100	> 100	> 100		> 100	62.6	52.1										
Cc1nc(N(C(C)C)C(C)C)c(C(C)C)o1	> 100	> 100	> 100	> 100	> 100	> 100	> 100	> 100	> 100	> 100										
O=C(NCCCCCCCN1CCCCCCC1)C(C1CCCCC1)C1CCCCC1	23	15.5	17	24.6	11.4	24.6	16.3	20.6	30.9	7.59										
CCC(=O)C(CCN1CCC(N2C(=O)C(CCC#N)c3ccccc32)CC1)(c1ccccc1)c1ccccc1 (stereo not given)	29.3	40.1	16.2	26.1	23.1	34.5	34.9	96.4	25.8	25.2										
O=C1c2ccccc2C(=O)c2c1cc1c(c2[N+](=O)[O-])OCO1	6.33	2.38	2.04	8.82	6.26	6.31	26.6	4.51	4.68	4	0.551	0.0824	0.506	2.27	0.621	1.71	3.52	0.556	2.01	1.5
O=c1[nH]c2nc[nH]c2c(=O)n1C1CCCCC1	> 100	> 100	> 100	> 100	> 100	> 100	> 100	> 100	> 100	> 100										
CSc1nc2c3ccccc3ccn2c1C(=O)N/N=C/c1ccccc1	> 90.2	> 100	> 79.4	> 72.4	> 100	9.53	> 100	> 40	> 100	> 100										

Source: PubChem BioAssay (NCI)
